Measured values: publication PMC7346113, “Screening of Natural Stilbene Oligomers from Vitis vinifera for Anticancer Activity on Human Hepatocellular Carcinoma Cells” (Antioxidants, 2020)
Blank lines part the entries; values can stand above or below the compound they belong to.

What was measured:
Type in all cases: cell-based, human
Conditions in all cases: mean ± standard error
[1] = tested on: HepG2; experiment: Cell viability, crystal violet assay, HepG2
Description: (§1) The human hepatoma cell line HepG2 was obtained from the American Tissue Culture Collection (ATCC, Manassas, VA, USA). The human hepatoma cell line Hep3B was obtained from the European Collection of Authenticated Cell Cultures (ECACC, Porton Down, Salisbury, Wiltshire, UK). HH4 non-transformed human hepatocyte cell line (kindly provided by Dr. I. Fabregat, Molecular Oncology, Bellvitge Biomedical Research Institute, Spain) was established as described.
(§2) HepG2 and Hep3B cell lines were maintained in Eagle’s Minimum Essential Medium and HH4 cell line was grown in Ham´s F12 Nutrient Mixture (Sigma-Aldrich, St Louis, MO, USA). Both culture media were supplemented with 10% heat inactivated fetal bovine serum, 2 mM L-glutamine and antibiotics (0.1 mg/mL streptomycin and 100 U/mL penicillin) (Sigma-Aldrich, St Louis, MO, USA). Cell cultures were grown in an incubator at 37 °C with 5% CO2 atmosphere. After reaching approximately 80% of confluence, cells were detached in a solution of 0.1% trypsin and 0.04% EDTA and plated as required for further experiments.
(§3) Cell lines were seeded into 96-well plates at 5 × 10^3 (HepG2) and 3 × 10^3 (Hep3B and HH4) cells/well 24 h before treatment. Increasing concentrations of the monomer trans-resveratrol, the dimers ampelopsin A and trans-ε-viniferin and the tetramers isohopeaphenol, hopeaphenol, R2-viniferin and R-viniferin were then added and cells were incubated for 24, 48, and 72 h. Stilbenes were dissolved in dimethyl sulfoxide (DMSO), Sigma-Aldrich, St Louis, MO, USA) at a final concentration of 0.01%. The same amount of DMSO was added to control cells. After treatment, the cell viability was determined using the crystal violet assay. The absorbance was recorded at 590 nm in a Synergy HT microplate reader (BioTek, Winooski, VT, USA). Cell viability was calculated as the percentage of viable cells treated with stilbene versus untreated control cells using the following equation: Cell viability (%) = [OD (Treatment) − OD (Blank)]/[OD (Control) − OD (Blank)] × 100. The cytotoxic effect of stilbenes was determined by calculating IC50 values using non-linear regression analysis (GraphPad Prism 6, San Diego, CA, USA).
(§4) The statistical package SPSS 19.0 (SPSS Inc. Chicago, IL, USA) was used for data analysis. The results were expressed as mean ± standard error (SE) from at least three experiments. Statistical significance for the differences of the means was estimated by parametric Student’s t-test. Differences between means were considered statistically significant for p < 0.05. IC50 values were derived from fitting the data to a sigmoidal dose-response curve with a three-parameter logistic model using Graph Pad Prism 6.

[2] = tested on: HH4; experiment: Cell viability, crystal violet assay, HH4 non-transformed hepatocytes
Description: as §1, §2, §3, §4

[3] = tested on: Hep3B; experiment: Cell viability, crystal violet assay, Hep3B
Description: as §1, §2, §3, §4

[4] = Homo sapiens, HepG2, 24 h, 24 h
[5] = Homo sapiens, HepG2, 48 h, 48 h
[6] = Homo sapiens, HepG2, 72 h, 72 h

Structure (SMILES): Oc1ccc([C@H]2c3c(O)cc(O)cc3[C@H]3c4c(cc(O)cc4[C@@H]2[C@H]2c4cc(O)cc5c4[C@H](c4cc(O)cc(O)c4[C@@H]2c2ccc(O)cc2)[C@@H](c2ccc(O)cc2)O5)O[C@@H]3c2ccc(O)cc2)cc1 [Hopeaphenol]
IC50 ([1]; 72 h): 24.4 ± 2 µM
IC50 [1, 4]: > 200 µM
IC50 [1, 5]: 27 ± 3.3 µM
IC50 [1, 6]: 24 µM
IC50 ([2]; Homo sapiens, Hepatocyte, 24 h): > 200 µM
IC50 ([2]; Homo sapiens, Hepatocyte, 48 h): 92 ± 38 µM
IC50 ([2]; Homo sapiens, Hepatocyte, 72 h): 37.6 ± 13 µM
IC50 ([3]; 72 h): 13.1 ± 4.1 µM
IC50 ([3]; Homo sapiens, Hep3B, 24 h): > 200 µM
IC50 ([3]; Homo sapiens, Hep3B, 48 h): 16.8 ± 2.3 µM
IC50 ([3]; Homo sapiens, Hep3B, 72 h): 13 µM

Structure (SMILES): Oc1ccc([C@@H]2c3c(O)cc(O)cc3[C@H]3c4c(cc(O)cc4[C@@H]2[C@H]2c4cc(O)cc5c4[C@H](c4cc(O)cc(O)c4[C@H]2c2ccc(O)cc2)[C@@H](c2ccc(O)cc2)O5)O[C@@H]3c2ccc(O)cc2)cc1 [Isohopeaphenol]
IC50 ([1]; 72 h): 54.1 ± 34 µM
IC50 [1, 4]: 113 ± 33 µM
IC50 [1, 5]: 68.8 ± 31 µM
IC50 [1, 6]: 54 µM
IC50 ([2]; Homo sapiens, Hepatocyte, 24 h): > 200 µM
IC50 ([2]; Homo sapiens, Hepatocyte, 48 h): 96 ± 5.5 µM
IC50 ([2]; Homo sapiens, Hepatocyte, 72 h): 63.7 ± 3.7 µM
IC50 ([3]; Homo sapiens, Hep3B, 24 h): 86.6 ± 11.7 µM
IC50 ([3]; Homo sapiens, Hep3B, 48 h): 37 ± 4.5 µM
IC50 ([3]; Homo sapiens, Hep3B, 72 h): 26 ± 3 µM

Structure (SMILES): Oc1ccc(/C=C/c2cc(O)cc(O)c2)cc1 [trans-Resveratrol, reference compound]
IC50 ([1]; 72 h): 30.3 ± 4.4 µM
IC50 [1, 4]: > 200 µM
IC50 [1, 5]: 40.3 ± 9.3 µM
IC50 [1, 6]: 30 µM
IC50 ([2]; Homo sapiens, Hepatocyte, 24 h): > 200 µM
IC50 ([2]; Homo sapiens, Hepatocyte, 48 h): 135 ± 9 µM
IC50 ([2]; Homo sapiens, Hepatocyte, 72 h): 93 ± 16.1 µM
IC50 ([3]; Homo sapiens, Hep3B, 24 h): > 200 µM
IC50 ([3]; Homo sapiens, Hep3B, 48 h): 42 ± 11.6 µM
IC50 ([3]; Homo sapiens, Hep3B, 72 h): 21 ± 16.8 µM

Second part, led by results:

IC50 ([1]; 72 h): 75.5 ± 21.5 µM
IC50 [1, 4]: > 200 µM
IC50 [1, 5]: 98.6 ± 24.9 µM
IC50 [1, 6]: 76 µM
IC50 ([3]; Homo sapiens, Hep3B, 24 h): > 200 µM
IC50 ([3]; Homo sapiens, Hep3B, 48 h): 148 ± 14.4 µM
IC50 ([3]; Homo sapiens, Hep3B, 72 h): 109 ± 7.3 µM
Structure (SMILES): Oc1ccc([C@H]2c3c(O)cc(O)cc3[C@H]3c4c(cc(O)cc4[C@@H]2O)O[C@@H]3c2ccc(O)cc2)cc1 [Ampelopsin A]
IC50 ([2]; Homo sapiens, Hepatocyte, 24 h): > 200 µM
IC50 ([2]; Homo sapiens, Hepatocyte, 48 h): 178 ± 67.8 µM
IC50 ([2]; Homo sapiens, Hepatocyte, 72 h): 134 ± 34.7 µM

IC50 [1, 4]: > 200 µM
IC50 [1, 5]: > 200 µM
IC50 [1, 6]: 192 ± 27.1 µM
IC50 ([3]; Homo sapiens, Hep3B, 24 h): > 200 µM
IC50 ([3]; Homo sapiens, Hep3B, 48 h): 137 ± 19.8 µM
IC50 ([3]; Homo sapiens, Hep3B, 72 h): 135 ± 35.7 µM
Structure (SMILES): Oc1ccc([C@H]2Oc3cc(O)cc(/C=C/c4ccc5c(c4)[C@@H](c4cc(O)cc6c4[C@H](c4cc(O)cc(O)c4)[C@@H](c4ccc(O)cc4)O6)[C@H](c4ccc(O)cc4)O5)c3[C@@H]2c2cc(O)cc(O)c2)cc1 [R-Viniferin]

IC50 [1, 4]: 140 ± 39.7 µM
IC50 [1, 5]: 104 ± 19.2 µM
IC50 [1, 6]: 94.8 ± 28.3 µM
IC50 ([3]; 72 h): 63.1 ± 10.8 µM
IC50 ([3]; Homo sapiens, Hep3B, 24 h): 108 ± 31.8 µM
IC50 ([3]; Homo sapiens, Hep3B, 48 h): 73.9 ± 17.3 µM
IC50 ([3]; Homo sapiens, Hep3B, 72 h): 63 µM
Structure (SMILES): Oc1ccc(/C=C/c2cc(O)cc3c2[C@@H](c2cc(O)cc(O)c2)[C@H](c2ccc(O)cc2)O3)cc1 [trans-ε-Viniferin]
IC50 ([2]; 72 h): 178 ± 20.5 µM
IC50 ([2]; Homo sapiens, Hepatocyte, 24 h): > 200 µM
IC50 ([2]; Homo sapiens, Hepatocyte, 48 h): 193 ± 21.1 µM
IC50 ([2]; Homo sapiens, Hepatocyte, 72 h): 178 µM
